Source: paper PMC8194506 (Antiviral research, 2020)
Read-outs that look alike come from different tables or passages of the source.

Key:
[1] = microsomes
[2] = mouse, microsomes
[3] = human, microsomes
EBOV [4] = conditions: cited from earlier work
in vitro [5] = conditions: mouse, microsomes
in vitro [6] = conditions: guinea pig, microsomes
in vitro [7] = conditions: human, microsomes
[8] = guinea pig, microsomes
[9] = system: VSV pseudotyped with EBOV glycoprotein; type: cell-based
[10] = system: Marburg virus/H.sapiens-tc/KEN/1980/Mt. Elgon-Musoke (MARV/Mus); assay: organism not typed; type: cell-based; conditions: HeLa
[11] = human, in vivo; cited from earlier work
in vivo = conditions: male, Hartley, guinea pig, ip, 125 mg/kg
MARV (Musoke and Angola) = assay: organism not typed; type: cell-based, Marburg virus; conditions: HeLa, read-out: IC50 range against two strains of MARV
MARV Musoke strain = type: cell-based, Marburg virus
in vitro [12] = conditions: human
[13] = male, Hartley, guinea pig, in vivo
[14] = system: EBOV (Kikwit, Mayinga and Makona); assay: microbe, parasite or virus in culture; type: cell-based, Ebola virus; conditions: Zaire ebolavirus, HeLa, read-out: IC50 range against three strains of EBOV
[15] = both, Hartley, guinea pig, in vivo
[16] = system: Marburg virus/H.sapiens-tc/AGO/2005/Ang-1379v (MARV/Ang); assay: organism not typed; type: cell-based; conditions: HeLa
EBOV [17] = conditions: human, in vivo; cited from earlier work
EBOV [18] = conditions: in vivo, iv; cited from earlier work
Sudan virus = conditions: guinea pig, in vivo, sc; cited from earlier work
EBOV [19] = conditions: mouse, in vivo; cited from earlier work
[20] = pH 7.4

## CCN(CC)CCCC(C)Nc1ccnc2cc(Cl)ccc12 (centres unmarked) [Chloroquine]
[1]
  Clint: 13.0 µL·min/mg
[2]
  Clint: 29.3 µL·min/mg
[3]
  Clint: 6.9 µL·min/mg
EBOV [4]
  activity in the guinea pig in vivo model: inactive
In vitro [5]
  half-life: 0.788 h
In vitro [6]
  half-life: 2.21 h
In vitro [7]
  half-life: 3.36 h
[8]
  Clint: 10.5 µL·min/mg

## CCCCc1oc2ccccc2c1C(=O)c1cc(I)c(OCCN(CC)CC)c(I)c1 [amiodarone]
EBOV [4]
  activity in the guinea pig in vivo model: inactive

## COc1ccc2nc3cc(Cl)ccc3c(Nc3cc(CN4CCCC4)c(O)c(CN4CCCC4)c3)c2n1 [Pyronaridine, 4-[(7-Chloro-2-methoxybenzo[b][1,5]naphthyridin-10-yl)amino]-2,6-bis(1-pyrrolidinylmethyl)phenol phosphate (1:4)]
[9]
  Effect on entry stage of infection in pseudotype assay: block the entry stage of infection
[1]
  Clint: 15.5 µL·min/mg
[2]
  Clint: <7.4 µL·min/mg
[10]
  IC50: 1.01 ± 0.11 µM
[3]
  Clint: 11.4 µL·min/mg
[11]
  t1/2: 195 to 251 h
In vivo
  AUC(0-inf): 17400 ng·h/mL
  AUC(0-t): 16600 ng·h/mL
  Cmax: 523 ng/mL
In vivo; T1/2
  half-life: 72.7 h
MARV (Musoke and Angola)
  IC50: 1.01 to 2.72 µM
MARV Musoke strain
  Activity against MARV Musoke strain: active
In vitro [12]
  CC50: 4.11 ± 0.5 µM
In vitro [5]
  half-life: > 3.1 h
[13]
  Guinea pigs found dead on days 14 and 17 post dose: 2 of 3
[13]; po, 600 mg/kg
  T1/2: 90.5 h
In vitro [6]
  half-life: 1.1 h
[14]
  IC50: 0.82 to 1.3 µM
[15]
  guinea pigs found dead within 30 mins post injection: 4 of 6
  guinea pigs having any abnormal clinical observations: 1 of 6
[16]
  IC50: 2.72 ± 0.97 µM
In vitro [7]
  half-life: 2.04 h
[8]
  Clint: 21.0 µL·min/mg

## CCC(CC)COC(=O)[C@H](C)N[P@](=O)(OC[C@H]1O[C@@](C#N)(c2ccc3c(N)ncnn23)[C@H](O)[C@@H]1O)Oc1ccccc1 [remdesivir]
EBOV [17]
  overall survival rate: 47%
EBOV [18]
  survival: 100%

## 17-DMAG
EBOV [4]
  activity in the guinea pig in vivo model: inactive

## CC[C@H]1OC(=O)[C@H](C)[C@@H](O[C@H]2C[C@@](C)(OC)[C@@H](O)[C@H](C)O2)[C@H](C)[C@@H](O[C@@H]2O[C@H](C)C[C@H](N(C)C)[C@H]2O)[C@](C)(O)C[C@@H](C)CN(C)[C@H](C)[C@@H](O)[C@]1(C)O [azithromycin]
EBOV [4]
  activity in the guinea pig in vivo model: inactive

## CCN(CC)CCOc1ccc2c(c1)C(=O)c1cc(OCCN(CC)CC)ccc1-2 [Tilorone]
[9]
  Effect on entry stage of infection in pseudotype assay: block the entry stage of infection
[1]
  Clint: 14.7 µL·min/mg
[2]
  Clint: 13.5 µL·min/mg
[10]
  IC50: 2.05 ± 0.28 µM
[3]
  Clint: 10.9 µL·min/mg
MARV Musoke strain
  Activity against MARV Musoke strain: active
In vitro [12]
  CC50: 18 ± 3.04 µM
In vitro [5]
  half-life: 1.71 h
In vitro [6]
  half-life: 0.203 h
[16]
  IC50: 4.51 ± 1.93 µM
In vitro [7]
  half-life: 2.12 h
[8]
  Clint: 113.7 µL·min/mg

## NC(=O)c1nc(F)c[nH]c1=O [Favipiravir]
Sudan virus
  survival rates: 83–100%
EBOV [19]
  protection: 83%

## Nc1nc(Nc2ccc3c(c2)CC[C@@H](N2CCCC2)CC3)nn1-c1cc2c(nn1)-c1ccccc1CCC2 [BGB324]
EBOV [4]
  activity in the guinea pig in vivo model: inactive

## CCN(CC)CCCC(C)Nc1c2ccc(Cl)cc2nc2ccc(OC)cc12 (centres unmarked) [Quinacrine]
[9]
  Effect on entry stage of infection in pseudotype assay: block the entry stage of infection
[1]
  Clint: 137.4 µL·min/mg
[2]
  Clint: 110.0 µL·min/mg
[10]
  IC50: 1.57 ± 0.17 µM
[3]
  Clint: 50.5 µL·min/mg
[20]
  O-demethylation, higher in guinea pig: 2–3 times
MARV Musoke strain
  Activity against MARV Musoke strain: active
In vitro [12]
  CC50: 8.62 ± 0.02 µM
In vitro [5]
  half-life: 0.21 h
In vitro [6]
  half-life: 0.285 h
[16]
  IC50: 2.94 ± 0.76 µM
In vitro [7]
  half-life: 0.458 h
[8]
  Clint: 81.3 µL·min/mg

B1: mAb114: a monoclonal antibody (antibody, chains of the INN, looked up, V domains shown)
VH: EVQLVESGGGLIQPGGSLRLSCAASGFALRMYDMHWVRQTIDKRLEWVSAVGPSGDTTYADSVKGRFAVSRENAKNSLSLQMNSLTAGDTAIYYCVRSDRGVAGLFDSWGQGILVTVSS
VL: DIQMTQSPSSLSASVGDRITITCRASQAFDNYVAWYQQRPGKVPKLLISAASALHAGVPSRFSGSGSGTHFTLTISSLQPEDVATYYCQNYNSAPLTFGGGTKVEIK
EBOV [17]
  overall survival rate: 66%
